Data taken from patent US11396497B2, “Proteasome inhibitors” (New Mexico Tech University Research Park Corporation, priority 2018, dated 2022).
Like-named read-outs stand apart in the source and are kept apart here.

Tests used:
[1] = system: RPMI 8226 cells; assay: MTT assay cytotoxicity RPMI 8226; conditions: read-out: Cytotoxicity RPMI 8226 IC50
[2] = system: MCF7 cells; assay: MTT assay cytotoxicity MCF7
Method: (§4) The cells were incubated at 37° C. in a humidified atmosphere with 5% CO2.
(§5) 100 μL of cells were added to each well of a 96 well microtiter plate at a concentration of 4×10^4 cells/mL and incubated overnight to allow proper adhesion. (RPMI 8226 cells were plated at 4×10^5 cells/mL). The cells were treated with the panel of test compounds at a series of concentrations, along with vehicle control DMSO and untreated cells as controls. After 48 h incubation, 20 μL of MTT reagent (3-(4,5-dimethylthiazol-2-yl)-2,5-diphenyltetrazolium bromide) in PBS (5 mg/mL) was added to each well of the plates. The plate was incubated for 2 h at 37° C. For adherent cell lines, the media was removed from each well of the plate and the resulting formazan crystals dissolved in 100 μL of DMSO. For RPMI 8226 cells, 200 ul of DMF/SDS mix (50% DMF. 10% w/v SDS pH<4) was used to solubilize the formazan crystals. Optical density (OD) at 490 nm was measured using a microplate reader. Cells treated with 1 μM phenyl arsine oxide (PAO) served as a positive cell-killing control. Technical replicates of these assays were performed in biological quadruplicate, and the three best values were used for analysis in order to eliminate outliers. Data presented are the average IC50 value calculated from at least 3 technical replicates with the corresponding standard deviation.

[3] = system: MDA-MB-231 cells; assay: MTT assay cytotoxicity MDA-MB-231
Method: as §4, §5

[4] = target: T1, trypsin-like activity of the 26S proteasome (Homo sapiens, UniProt Q99436); assay: Proteasome assay, trypsin-like (T-L) activity, SUC-RLR-AMC, Jurkat cell lysate; format: biochemical
T1 construct: endogenous in cells; host or cells: Jurkat (ATCC TIB-152, E6-1 clone) cell lysate
T1 sequence (Q99436 44-277): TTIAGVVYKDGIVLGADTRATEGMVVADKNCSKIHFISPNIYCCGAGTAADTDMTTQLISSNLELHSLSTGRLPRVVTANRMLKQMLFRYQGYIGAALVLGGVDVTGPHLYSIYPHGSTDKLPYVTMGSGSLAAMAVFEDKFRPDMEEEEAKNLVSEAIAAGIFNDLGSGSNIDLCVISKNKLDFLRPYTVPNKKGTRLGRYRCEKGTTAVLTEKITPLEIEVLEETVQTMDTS
Method: (§1) The lysate was stored at −80° C. until the sample was used for the proteasome assay.
(§2) The compounds were diluted with lysis buffer; 10 μL of the compound-containing solution was added to the test wells at ten times the final concentration. […] The results are reported as the average of at least 3 technical replicates of IC50 values for proteasome inhibition.

[5] = target: T2, chymotrypsin-like activity of the 26S proteasome (Homo sapiens, UniProt P28074); assay: Proteasome assay, chymotrypsin-like (ChT-L) activity, Suc-LLVY-AMC, Jurkat cell lysate; format: biochemical; conditions: for IC50: ± S.D., read-out: Proteasome Inhibition ChT-like IC50
T2 construct: endogenous in cells; host or cells: Jurkat (ATCC TIB-152, E6-1 clone) cell lysate
T2 sequence (P28074 60-263): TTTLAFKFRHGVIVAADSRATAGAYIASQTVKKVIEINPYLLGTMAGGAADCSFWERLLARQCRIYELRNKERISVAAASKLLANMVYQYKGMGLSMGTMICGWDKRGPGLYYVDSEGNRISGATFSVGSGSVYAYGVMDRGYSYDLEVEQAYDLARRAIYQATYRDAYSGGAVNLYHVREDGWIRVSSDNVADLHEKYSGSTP
Method: as §1, §2

[6] = system: MCF7 cells
Method: as §4, §5

[7] = system: RPMI 8226 cells
[8] = system: MDA-MB-231 cells
Method: as §4, §5

[9] = target: T3, yeast proteasome yβ2 subunit (Saccharomyces cerevisiae, UniProt P25043+P25451); assay: Subunit selectivity, purified yeast proteasome yβ2; format: biochemical
T3 construct: measured using 8 μg/mL of purified yCP or iCP
Method: as §2
(§3) Values and standard deviations were calculated from an assay performed in biological triplicate.

[10] = target: T4, yeast proteasome yβ1 subunit (Saccharomyces cerevisiae, UniProt P25043+P38624); assay: Subunit selectivity, purified yeast proteasome yβ1; format: biochemical
T4 construct: measured using 8 μg/mL of purified yCP or iCP
Method: as §2, §3

[11] = read-out: Cytotoxicity MCF7 IC50, Table 3, MTT, 48 h
[12] = read-out: Cytotoxicity MDA-MB-231 IC50, Table 3, MTT, 48 h
[13] = Table 3, P2/P3 analogues, ± S.D., read-out: Proteasome Inhibition T-L-like IC50
[14] = Homo sapiens, MCF7, 48 h, read-out: Cytotoxicity MCF7 IC50
[15] = Homo sapiens, MDA-MB-231, 48 h, read-out: Cytotoxicity MDA-MB-231 IC50
[16] = Table 2, P1 analogues, ± S.D., read-out: Proteasome Inhibition T-L-like IC50

Compound | IC50 [4, 13] [nM] | IC50 ([5]; Table 3, P2/P3 analogues) [nM] | IC50 [6] [nM] | IC50 [7] [nM] | IC50 [8] [nM] | IC50 ([1]; Homo sapiens, RPMI-8226, 48 h) [nM] | IC50 [2, 14] [nM] | IC50 [3, 15] [nM] | IC50 ([5]; Table 4, P4 analogues) [nM] | also measured
CC[C@H](C)[C@@H]1C(=O)O[C@H]1C(=O)N[C@H](C(=O)N[C@@H](Cc1ccccc1)C(=O)OCc1ccccc1)C(C)C [Compound 10c, Benzyl((2R,3S)-3-((S)-sec-butyl)-4-oxooxetane-2-carbonyl)-L-valyl-phenylalaninate] | 1660 ± 204 | 5.4 ± 2.9 |  |  |  |  |  |  |  | IC50 ([1]; Table 3, MTT, 48 h): 1040 ± 45 nM; IC50 [2, 11]: 2300 ± 142 nM; IC50 [3, 12]: 2570 ± 705 nM
CC[C@H](C)[C@@H]1C(=O)O[C@H]1C(=O)N[C@H](C(=O)N[C@H](C(=O)OCc1ccccc1)C(C)C)C(C)(C)C [Compound 10e, Benzyl((S)-2-((2R,3S)-3-((S)-sec-butyl)-4-oxooxetane-2-carboxamido)-3,3-dimethylbutanoyl)-L-valinate] | 5180 ± 1490 | 22.9 ± 2.5 | 2140 ± 122 | 1050 ± 750 | 1030 ± 644 |  |  |  |  | subunit selectivity, ChT-L over T-L (in words) [5]: enhanced subunit selectivity
CC[C@H](C)[C@@H]1C(=O)O[C@H]1C(=O)N[C@H](C(=O)N[C@H](C(=O)OC)C(C)C)C(C)C [Compound 11h, Methyl ((2R,3S)-3-((S)-sec-butyl)-4-oxooxetane-2-carbonyl)-L-valyl-L-valinate] |  |  |  |  |  | 293 ± 71 | 506 ± 207 | 316 ± 44 | 24.3 ± 8.2 | 
CC[C@H](C)[C@@H]1C(=O)O[C@H]1C(=O)N[C@H](C(=O)N[C@H](C(=O)OCc1ccccc1)C(C)(C)C)C(C)C [Compound 10f, Benzyl(S)-2-((S)-2-((2R,3S)-3-((S)-sec-butyl)-4-oxooxetane-2-carboxamido)-3-methylbutanamido)-3,3-dimethylbutanoate] |  | 15.9 ± 1 |  |  |  | 1390 ± 131 | 1120 ± 332 | 1110 ± 582 |  | IC50 [4]: 3710 ± 719 nM
CC[C@H](C)[C@@H]1C(=O)O[C@H]1C(=O)N[C@@H](COCc1ccccc1)C(=O)N[C@H](C(=O)OCc1ccccc1)C(C)C [Compound 10j, BenzylO-benzyl-N-((2R,3S)-3-((S)-sec-butyl)-4-oxooxetane-2-carbonyl)-L-seryl-L-valinate] | 792 ± 240 | 6.9 ± 0.2 |  |  |  |  |  |  |  | IC50 ([1]; Table 3, MTT, 48 h): 1430 ± 526 nM; IC50 [2, 11]: 2760 ± 791 nM; IC50 [3, 12]: 2210 ± 764 nM
CC(C)C[C@H](NC(=O)[C@H](CCc1ccccc1)NC(=O)CN1CCOCC1)C(=O)N[C@@H](Cc1ccccc1)C(=O)N[C@@H](CC(C)C)C(=O)[C@@]1(C)CO1 [Carfilzomib, reference compound] |  |  |  |  |  |  | 4 ± 1 | 4 ± 2 |  | IC50 [9]: > 1000 nM; IC50 ([2]; Homo sapiens, MCF7, read-out: Cytotoxicity MCF7 IC50): 4.08 ± 0.056 nM; IC50 [10]: > 1000 nM; IC50 ([3]; Homo sapiens, MDA-MB-231, read-out: Cytotoxicity MDA-MB-231 IC50): 2.79 ± 0.464 nM
CC[C@H](C)[C@@H]1C(=O)O[C@H]1C(=O)N[C@@H](Cc1ccccc1)C(=O)N[C@@H](Cc1ccccc1)C(=O)OCc1ccccc1 [Compound 10d, Benzyl((2R,3S)-3-((S)-sec-butyl)-4-oxooxetane-2-carbonyl)-L-phenylalanyl-L-phenylalaninate] | 3050 ± 1260 | 12.6 ± 5.7 |  |  |  |  |  |  |  | IC50 ([1]; Table 3, MTT, 48 h): 1280 ± 527 nM; IC50 [2, 11]: 3620 ± 2500 nM; IC50 [3, 12]: 4660 ± 1540 nM
C=CCCOC(=O)[C@@H](NC(=O)[C@@H](NC(=O)[C@@H]1OC(=O)[C@H]1[C@@H](C)CC)C(C)C)C(C)C [Compound 11g, But-3-en-1-yl((2R,3S)-3-((S)-sec-butyl)-4-oxooxetane-2-carbonyl)-L-valyl-L-valinate] |  |  | 752 ± 384 | 264 ± 48 | 361 ± 43 |  |  |  | 8.7 ± 2 | 
CC(C)C[C@@H]1C(=O)O[C@H]1C(=O)N[C@H](C(=O)N[C@H](C(=O)OCc1ccccc1)C(C)C)C(C)C [Compound 9d, Benzyl ((2R,3S)-3-isobutyl-4-oxooxetane-2-carbonyl)-L-valyl-L-valinate] |  |  |  |  |  | 19900 ± 8060 | ~40000 | 25300 ± 2940 |  | IC50 [4, 16]: 6670 ± 3440 nM; IC50 ([5]; Table 2, P1 analogues): 16 ± 4.7 nM
CC[C@H](C)[C@@H]1C(=O)O[C@H]1C(=O)N[C@H](C(=O)N[C@H](C(=O)OCC1CCCCC1)C(C)C)C(C)C [Compound 11c, Cyclohexylmethyl((2R,3S)-3-((S)-sec-butyl)-4-oxooxetane-2-carbonyl)-L-valyl-L-valinate] |  |  | 4570 ± 1650 | 461 ± 194 | 1920 ± 917 |  |  |  | 13 ± 5.2 | 
CC[C@H](C)[C@@H]1C(=O)O[C@H]1C(=O)N[C@H](C(=O)N[C@H](C(=O)OCc1ccc(Cl)cc1)C(C)C)C(C)C [Compound 11b, 4-chlorobenzyl((2R,3S)-3-((S)-sec-butyl)-4-oxooxetane-2-carbonyl)-L-valyl-L-valinate] |  |  | 954 ± 351 | 88 ± 12 | 307 ± 166 |  |  |  | 10.2 ± 7 | 
CC(C)[C@H](NC(=O)[C@@H]1OC(=O)[C@H]1C1CCCC1)C(=O)N[C@H](C(=O)OCc1ccccc1)C(C)C [Compound 9c, Benzyl ((2R,3S)-3-cyclopentyl-4-oxooxetane-2-carbonyl)-L-valyl-L-valinate] |  |  |  |  |  | 1980 ± 1000 | ~25000 | 20600 ± 3940 |  | IC50 [4, 16]: 10200 ± 3390 nM; subunit selectivity, ChT-L over T-L (in words) [5]: greatest selectivity; IC50 ([5]; Table 2, P1 analogues): 13.9 ± 0.6 nM
CC(C)[C@H](NC(=O)[C@@H]1OC(=O)[C@H]1C1CCC1)C(=O)N[C@H](C(=O)OCc1ccccc1)C(C)C [Compound 9b, Benzyl ((2R,3S)-3-cyclobutyl-4-oxooxetane-2-carbonyl)-L-valyl-L-valinate] |  |  |  |  |  | 30400 ± 4750 | > 50000 | ~50000 |  | IC50 [4, 16]: 3730 ± 775 nM; IC50 ([5]; Table 2, P1 analogues): 26.5 ± 7.7 nM
CC[C@H](C)[C@@H]1C(=O)O[C@H]1C(=O)N[C@H](C(=O)N[C@H](C(=O)OCC(C)C)C(C)C)C(C)C [Compound 11d, Isobutyl((2R,3S)-3-((S)-sec-butyl)-4-oxooxetane-2-carbonyl)-L-valyl-L-valinate] |  |  | 634 ± 72 | 99 ± 7 | 355 ± 123 |  |  |  | 9.4 ± 3.7 | 
CC[C@H](C)[C@@H]1C(=O)O[C@H]1C(=O)N[C@@H](CC(C)C)C(=O)N[C@H](C(=O)OCc1ccccc1)C(C)C [Compound 10h, Benzyl((2R,3S)-3-((S)-sec-butyl)-4-oxooxetane-2-carbonyl)-L-leucyl-L-valinate] | 2560 ± 390 | 4.7 ± 1.8 | 2350 ± 458 | 1780 ± 1020 | 2080 ± 651 |  |  |  |  | 
CC[C@H](C)[C@@H]1C(=O)O[C@H]1C(=O)N[C@@H](Cc1ccccc1)C(=O)N[C@H](C(=O)OCc1ccccc1)C(C)C [Compound 10b, Benzyl((2R,3S)-3-((S)-sec-butyl)-4-oxooxetane-2-carbonyl)-L-phenylalanyl-L-valinate] | 3820 ± 812 | 7.7 ± 1.7 |  |  |  |  |  |  |  | IC50 ([1]; Table 3, MTT, 48 h): 2330 ± 610 nM; IC50 [2, 11]: ~5000 nM; IC50 [3, 12]: 3440 ± 722 nM; subunit selectivity, ChT-L over T-L (in words) [5]: enhanced subunit selectivity
CC[C@H](C)[C@@H]1C(=O)O[C@H]1C(=O)N[C@H](C(=O)N[C@H](C(=O)OCc1ccc(OC)cc1)C(C)C)C(C)C [Compound 11f, 4-methoxybenzyl((2R,3S)-3-((S)-sec-butyl)-4-oxooxetane-2-carbonyl)-L-valyl-L-valinate] |  |  |  |  |  |  |  |  | 9 ± 4.2 | IC50 ([1]; Table 4, MTT, 48 h): 117 ± 47 nM; IC50 ([2]; read-out: Cytotoxicity MCF7 IC50, Table 4, MTT, 48 h): 574 ± 96 nM; IC50 ([3]; read-out: Cytotoxicity MDA-MB-231 IC50, Table 4, MTT, 48 h): 265 ± 114 nM
CC[C@H](C)[C@@H]1C(=O)O[C@H]1C(=O)N[C@H](C(=O)N[C@H](C(=O)OCc1ccccc1)C(C)(C)C)C(C)(C)C [Compound 10g, Benzyl(S)-2-((S)-2-((2R,3S)-3-((S)-sec-butyl)-4-oxooxetane-2-carboxamido)-3,3-dimethylbutanamido)-3,3-dimethylbutanoate] | 4530 ± 2180 | 21.4 ± 8.8 |  |  |  | 866 ± 532 | 1690 ± 102 | 953 ± 484 |  | 
